Experimental data from patent US7696246B2 (Ligand Pharmaceuticals Incorporated, priority 1999, dated 2010).
Read-outs that look alike come from different tables or passages of the source.

What was measured:
human AR [1] = target: T1, human AR (Homo sapiens, UniProt P10275); assay: Co-transfection assay, AR agonist activity (CV-1 cells, MTV-LUC reporter); assay type: cell-based; details: CV-1 cells; for EC50: agonist potency EC50; for AR Agonist CV-1 Cells Efficacy (%): percent maximal response relative to reference agonist DHT
T1 sequence (P10275 1-920): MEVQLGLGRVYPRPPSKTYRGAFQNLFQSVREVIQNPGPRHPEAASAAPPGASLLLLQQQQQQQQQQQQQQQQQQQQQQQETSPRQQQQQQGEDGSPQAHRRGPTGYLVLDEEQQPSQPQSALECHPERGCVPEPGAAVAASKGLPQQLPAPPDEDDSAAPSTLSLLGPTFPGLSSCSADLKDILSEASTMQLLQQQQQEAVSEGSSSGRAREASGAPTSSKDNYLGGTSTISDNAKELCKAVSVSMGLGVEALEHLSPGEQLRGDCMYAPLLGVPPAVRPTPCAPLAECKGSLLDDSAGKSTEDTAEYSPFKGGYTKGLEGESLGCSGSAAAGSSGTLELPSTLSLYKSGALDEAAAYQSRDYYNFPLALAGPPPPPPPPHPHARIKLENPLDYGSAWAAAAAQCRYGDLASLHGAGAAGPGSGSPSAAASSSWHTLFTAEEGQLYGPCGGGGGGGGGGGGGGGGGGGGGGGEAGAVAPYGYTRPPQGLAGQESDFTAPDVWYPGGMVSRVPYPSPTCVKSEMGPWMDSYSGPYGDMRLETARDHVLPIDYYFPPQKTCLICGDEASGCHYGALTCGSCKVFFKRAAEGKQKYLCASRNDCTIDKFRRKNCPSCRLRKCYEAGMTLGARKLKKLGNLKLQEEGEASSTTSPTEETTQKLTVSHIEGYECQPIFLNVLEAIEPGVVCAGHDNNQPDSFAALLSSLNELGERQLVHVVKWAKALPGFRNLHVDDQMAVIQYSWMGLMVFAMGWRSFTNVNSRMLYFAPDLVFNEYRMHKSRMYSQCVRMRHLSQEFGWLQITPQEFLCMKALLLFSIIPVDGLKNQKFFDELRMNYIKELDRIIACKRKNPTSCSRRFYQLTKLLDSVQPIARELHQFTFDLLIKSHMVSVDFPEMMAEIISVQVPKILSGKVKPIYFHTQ

human AR [2] = target: T1, human AR; assay: Co-transfection assay, AR antagonist activity (CV-1 cells, in presence of DHT); assay type: cell-based; details: for AR Antagonist CV-1 Cells Efficacy (%): percent maximal inhibition, DHT at its EC50; for IC50: read-out: AR Antagonist CV-1 Cells Potency
human AR [3] = target: T1, human AR; assay: AR whole cell competitive binding assay (COS-1 cells, 3H-DHT); details: 1 nM 3H-DHT, Cheng-Prusoff

O=c1cc(C(F)(F)F)c2cc(N3CCc4ccccc43)ccc2[nH]1 [Compound 347, 6-(1-Indolino)-4-trifluoromethyl-2(1H)-quinolinone]
EC50 (human AR [1]): > 10000 nM
AR Antagonist CV-1 Cells Efficacy (%) (human AR [2]; CV-1 cells): 89%
IC50 (human AR [2]): 59 nM
Ki (human AR [3]): 970 nM

CC1COC(C(F)(F)F)N1c1ccc2[nH]c(=O)cc(C(F)(F)F)c2c1 (racemic) [Compound 352, (±)-6-(2-Trifluoromethyl-5-trans-methyl-1-oxazolidino)-4-trifluoromethyl-2(1H)-quinolinone]
EC50 (human AR [1]): 12 nM
AR Agonist CV-1 Cells Efficacy (%) (human AR [1]): 113%
AR Antagonist CV-1 Cells Efficacy (%) (human AR [2]; CV-1 cells): na (na = not active (i.e. efficacy of <20 and potency of >10,000))
IC50 (human AR [2]): > 10000 nM
Ki (human AR [3]): 25 nM

CCCOc1c(NCC(F)(F)F)ccc2[nH]c(=O)cc(C(F)(F)F)c12 [Compound 602, 6-(N-2,2,2-Trifluoroethyl)amino-5-propyloxy-4-trifluoromethyl-2(1H)-quinolinone]
EC50 (human AR [1]): > 10000 nM
AR Antagonist CV-1 Cells Efficacy (%) (human AR [2]; CV-1 cells): 85%
IC50 (human AR [2]): 27 nM
Ki (human AR [3]): 45 nM

O=C1C=C(c2ccc3[nH]c(=O)cc(C(F)(F)F)c3c2)CCC1 [Compound 655, 6-(3-Oxo-1-)cyclohexenyl-4-trifluoromethyl-2(1H)-quinolinone]
EC50 (human AR [1]): > 10000 nM
AR Antagonist CV-1 Cells Efficacy (%) (human AR [2]; CV-1 cells): 70%
IC50 (human AR [2]): 70 nM
Ki (human AR [3]): > 1000 nM

CCCN(CC(F)(F)F)c1ccc2[nH]c(=O)cc(C)c2c1 [Compound 374, 6-(N-Propyl-N-2,2,2-trifluoroethyl)amino-4-methyl-2(1H)-quinolinone]
EC50 (human AR [1]): 2.2 nM
AR Agonist CV-1 Cells Efficacy (%) (human AR [1]): 77%
AR Antagonist CV-1 Cells Efficacy (%) (human AR [2]; CV-1 cells): na (na = not active (i.e. efficacy of <20 and potency of >10,000))
IC50 (human AR [2]): > 10000 nM
Ki (human AR [3]): 6.2 nM

C[C@@H]1C=C[C@H](C)N1c1ccc2[nH]c(=O)cc(C(F)(F)F)c2c1 [Compound 332, 6-(2,5-cis-Dimethyl-1-pyrrolino)-4-trifluoromethyl-2(1H)-quinolinone]
EC50 (human AR [1]): 14 nM
AR Agonist CV-1 Cells Efficacy (%) (human AR [1]): 121%
AR Antagonist CV-1 Cells Efficacy (%) (human AR [2]; CV-1 cells): na (na = not active (i.e. efficacy of <20 and potency of >10,000))
IC50 (human AR [2]): > 10000 nM
Ki (human AR [3]): 19 nM

CCCC1CCC(CCC)N1c1ccc2[nH]c(=O)cc(C(F)(F)F)c2c1 (racemic) [Compound 365, (±)-6-(2,5-trans-Dipropyl-1-pyrrolidino)-4-trifluoromethyl-2(1H)-quinolinone]
EC50 (human AR [1]): 55 nM
AR Agonist CV-1 Cells Efficacy (%) (human AR [1]): 36%
AR Antagonist CV-1 Cells Efficacy (%) (human AR [2]; CV-1 cells): 43%
IC50 (human AR [2]): 14 nM
Ki (human AR [3]): 124 nM

CCC[C@@H]1CC[C@H](CCC)N1c1ccc2[nH]c(=O)cc(C(F)(F)F)c2c1 [Compound 366, 6-(2,5-cis-Dipropyl-1-pyrrolidino)-4-trifluoromethyl-2(1H)-quinolinone]
EC50 (human AR [1]): > 10000 nM
AR Antagonist CV-1 Cells Efficacy (%) (human AR [2]; CV-1 cells): 85%
IC50 (human AR [2]): 31 nM
Ki (human AR [3]): > 1000 nM

CC(C)CN(c1ccc2[nH]c(=O)cc(C(F)(F)F)c2c1)C(C)C(F)(F)F (racemic) [Compound 290, (±)-6-(N-Isobutyl-N-2,2,2-trifluoroisopropyl)amino-4-trifluoromethyl-2(1H)-quinolinone]
EC50 (human AR [1]): 32 nM
AR Agonist CV-1 Cells Efficacy (%) (human AR [1]): 37%
AR Antagonist CV-1 Cells Efficacy (%) (human AR [2]; CV-1 cells): 50%
IC50 (human AR [2]): 50 nM
Ki (human AR [3]): > 1000 nM

CCCN(CC)c1ccc2[nH]c(=O)cc(C(F)(F)F)c2c1 [Compound 238, 6-(N-Ethyl-N-propyl)amino-4-trifluoromethyl-2(1H)-quinolinone]
EC50 (human AR [1]): 5.3 nM
AR Agonist CV-1 Cells Efficacy (%) (human AR [1]): 77%
AR Antagonist CV-1 Cells Efficacy (%) (human AR [2]; CV-1 cells): na (na = not active (i.e. efficacy of <20 and potency of >10,000))
IC50 (human AR [2]): > 10000 nM
Ki (human AR [3]): 17 nM

O=c1cc(C(F)(F)F)c2cc(N3CCCCCC3)ccc2[nH]1 [Compound 330, 6-(1-Azepano)-4-trifluoromethyl-2(1H)-quinolinone]
EC50 (human AR [1]): 3.9 nM
AR Agonist CV-1 Cells Efficacy (%) (human AR [1]): 81%
AR Antagonist CV-1 Cells Efficacy (%) (human AR [2]; CV-1 cells): na (na = not active (i.e. efficacy of <20 and potency of >10,000))
IC50 (human AR [2]): > 10000 nM
Ki (human AR [3]): 55 nM

C=CCN(CC=C)c1ccc2[nH]c(=O)cc(C(F)(F)F)c2c1 [Compound 280, 6-Diallylamino-4-trifluoromethyl-2(1H)-quinolinone]
EC50 (human AR [1]): 2.2 nM
AR Agonist CV-1 Cells Efficacy (%) (human AR [1]): 78%
AR Antagonist CV-1 Cells Efficacy (%) (human AR [2]; CV-1 cells): na (na = not active (i.e. efficacy of <20 and potency of >10,000))
IC50 (human AR [2]): > 10000 nM
Ki (human AR [3]): 2.4 nM

CC1CN(c2ccc3[nH]c(=O)cc(C(F)(F)F)c3c2)C(C(F)(F)F)O1 (racemic) [Compound 351, (±)-6-(2-Trifluoromethyl-5-cis-methyl-1-oxazolidino)-4-trifluoromethyl-2(1H)-quinolinone]
EC50 (human AR [1]): 23 nM
AR Agonist CV-1 Cells Efficacy (%) (human AR [1]): 79%
IC50 (human AR [2]; CV-1 cells, antagonist potency IC50, DHT at its EC50): > 10000 nM
AR Antagonist CV-1 Cells Efficacy (%) (human AR [2]; CV-1 cells): na (na = not active (i.e. efficacy of <20 and potency of >10,000))
Ki (human AR [3]): 31 nM

CC(C)(C)Nc1ccc2[nH]c(=O)cc(C(F)(F)F)c2c1 [Compound 307, 6-tert-Butylamino-4-trifluoromethyl-2(1H)-quinolinone]
EC50 (human AR [1]): > 10000 nM
AR Antagonist CV-1 Cells Efficacy (%) (human AR [2]; CV-1 cells): 43%
IC50 (human AR [2]): 3.2 nM
Ki (human AR [3]): 61 nM

O=c1cc(C(F)(F)F)c2cc(N3CCCCC3CCOCc3ccc(C(F)(F)F)cc3)ccc2[nH]1 (racemic) [Compound 449, (±)-6-(2-(4-Trifluoromethyl)benzyloxyethyl-1-piperidino)-4-trifluoromethyl-2(1H)-quinolinone]
EC50 (human AR [1]): 16 nM
AR Agonist CV-1 Cells Efficacy (%) (human AR [1]): 83%
AR Antagonist CV-1 Cells Efficacy (%) (human AR [2]; CV-1 cells): na (na = not active (i.e. efficacy of <20 and potency of >10,000))
IC50 (human AR [2]): > 10000 nM
Ki (human AR [3]): 8.4 nM

CC1CCCCN1c1ccc2[nH]c(=O)cc(C(F)(F)F)c2c1 (racemic) [Compound 314, (±)-6-(2-Methyl-1-piperidino)-4-trifluoromethyl-2(1H)-quinolinone]
EC50 (human AR [1]): 5.3 nM
AR Agonist CV-1 Cells Efficacy (%) (human AR [1]): 83%
AR Antagonist CV-1 Cells Efficacy (%) (human AR [2]; CV-1 cells): na (na = not active (i.e. efficacy of <20 and potency of >10,000))
IC50 (human AR [2]): > 10000 nM
Ki (human AR [3]): 4.6 nM

Cn1c(=O)cc(C(F)(F)F)c2cc(N(CC(F)(F)F)CC(F)(F)F)ccc21 [Compound 297, 1-Methyl-6-(bis-2,2,2-trifluoroethyl)amino-4-trifluoromethyl-2(1H)-quinolinone]
EC50 (human AR [1]): 22 nM
AR Agonist CV-1 Cells Efficacy (%) (human AR [1]): 43%
AR Antagonist CV-1 Cells Efficacy (%) (human AR [2]; CV-1 cells): 43%
IC50 (human AR [2]): 3.2 nM
Ki (human AR [3]): 58 nM

CC1(C)OC(=O)Nc2ccc(N(CC(F)(F)F)CC(F)(F)F)cc21 [Compound 490, 1,4-Dihydro-4,4-dimethyl-6-(bis-N,N-2,2,2-trifluoroethyl)amino-1,3-benzo [d-]oxazin-2-one]
EC50 (human AR [1]): 12 nM
AR Agonist CV-1 Cells Efficacy (%) (human AR [1]): 113%
AR Antagonist CV-1 Cells Efficacy (%) (human AR [2]; CV-1 cells): na (na = not active (i.e. efficacy of <20 and potency of >10,000))
IC50 (human AR [2]): > 10000 nM
Ki (human AR [3]): 12 nM

CCC(CC)c1ccc2[nH]c(=O)cc(C(F)(F)F)c2c1 [Compound 647, 6-(1-Ethylpropyl)-4-trifluoromethyl-2(1H)-quinolinone]
EC50 (human AR [1]): 233 nM
AR Agonist CV-1 Cells Efficacy (%) (human AR [1]): 42%
AR Antagonist CV-1 Cells Efficacy (%) (human AR [2]; CV-1 cells): 64%
IC50 (human AR [2]): 31 nM
Ki (human AR [3]): 81 nM

CCN(CC(C)C)c1ccc2[nH]c(=O)cc(C(F)(F)F)c2c1 [Compound 241, 6-(N-Ethyl-N-isobutyl)amino-4-trifluoromethyl-2(1H)-quinolinone]
EC50 (human AR [1]): 2.9 nM
AR Agonist CV-1 Cells Efficacy (%) (human AR [1]): 73%
AR Antagonist CV-1 Cells Efficacy (%) (human AR [2]; CV-1 cells): na (na = not active (i.e. efficacy of <20 and potency of >10,000))
IC50 (human AR [2]): > 10000 nM
Ki (human AR [3]): 30 nM

O=c1cc(C(F)(F)F)c2cc(-c3ccc(Cl)cc3Cl)ccc2[nH]1 [Compound 753, 4-Trifluoromethyl-6-(2,4-dichlorophenyl)-2(1H)-quinolinone]
EC50 (human AR [1]): > 10000 nM
AR Antagonist CV-1 Cells Efficacy (%) (human AR [2]; CV-1 cells): 76%
IC50 (human AR [2]): 51 nM
Ki (human AR [3]): 74 nM

O=c1[nH]c2cc(NC3CCCC3)ccc2c(C(F)(F)F)c1F [Compound 536, 3-Fluoro-7-cyclopentylamino-4-trifluoromethyl-2(1H)-quinolinone]
EC50 (human AR [1]): > 10000 nM
AR Antagonist CV-1 Cells Efficacy (%) (human AR [2]; CV-1 cells): 76%
IC50 (human AR [2]): 28 nM
Ki (human AR [3]): 188 nM
